Assay results from patent US6627664B2, “Perylenequinones for use as sonosensitizers” (Altachem Pharma Ltd., priority 2001, dated 2003).
Like-named read-outs stand apart in the source and are kept apart here. Marks after values point to notes of the source that are not given here.

Experiments:
cells = settings: for Photopotentiation Factor: LD50 dark divided by LD50 light; for LD50 Light: light dose not fixed, 0.75-1.0 J/cm2 of 630 nm light; for cell killing with light: wavelengths between at least 630 and 688 nm
Text: As used herein, “photopotentiation factor” refers to the property of the compound(s) to exert light- or sound-mediated toxicity in excess of its (their) inherent unactivated toxicity. […] Where the term “LD50” has been used above, the term “IC50” may be substituted, to address the bioassays that concern metabolic activity rather than the endpoint of lethality, loss of reproductive capability, or clonogenic death. The relative photoactivation efficiency of a compound may also be determined using a clonogenic assay, an assay that is well known to those skilled in the art.
In accordance with the present invention, a desirable PQP derivative is one that is non-toxic (or of low toxicity) at high drug concentrations without activation, i.e., without light (also referred to as “dark”), and/or without sound, and is toxic at low concentrations when light of the appropriate wavelength, or sound of the appropriate frequency, is applied. As is recognized by those skilled in the art, the most desirable compounds are those that provide a wide range of non-toxic doses in an unactivated state, as this characteristic provides an increased safety factor for the patient.

[1] = Singlet oxygen (1O2) yield; format: physicochemical
HL-60 cells = test: Sonodynamic toxicity (insonation, surviving fraction); format: cell-based, human; settings: for maximum sonotoxic effect: 100 μM to 1000 μM, versus 1000 μM Hp control; for sonotoxicity: up to 100 μM
Description: Sonodynamic toxicity of two perylenequinone derivatives in human promyelocytic leukemia cells in vitro, with respect to a positive control, hematoporphyrin at 1 mM.
HL-60 cells were treated with perylenequinone sensitizers and insonated as described above. The surviving fractions were plotted against sensitizer concentration. […] Cell survival decreased steeply over the next two decades of sensitizer concentration.

sarcoma 180 cells [2] = settings: cited from earlier work; for rate of ultrasound-induced cell damage: 80 μM, insonated, versus ultrasound alone
[3] = insonated solutions, TMPone; cited from earlier work
[4] = same concentration as Hp; cited from earlier work
sarcoma 180 cells [5] = settings: 56 mg/kg administered before insonation; cited from earlier work
cell lines = settings: tone-burst and pulsed ultrasound; cited from earlier work
[6] = test system: uterine cervical squamous cell carcinomas; settings: with ultrasound; cited from earlier work
EMT6/Ed tumors = test: EMT6/Ed tumor control after 630 nm light applied transcutaneously; format: in vivo, Balb/c mice; settings: 50 μmol/kg body weight
Description: Both the concentration of drug and the dosage of light are important for treatment of tumors.
EMT6/Ed tumor control in Balb/c mice following various doses of 630 nm light applied transcutaneously. HBEA-R1 was administered at a fixed dose. True control represents animals given neither photosensitizer nor laser light. The animals were treated approximately 7 days following tumor implantation, and euthanized when tumors reached four times treatment volume.

EMT6/Ed cells [7] = test: Propidium iodide determination of apoptotic nuclei; format: cell-based
Text: The background frequency of cells with apoptotic morphology is represented by the untreated control.

cell suspension = test: Oxygen dependency of phototoxicity; format: cell-based; settings: total absence of oxygen
Text: Phototoxicity diminishes as the pO2 in the gas phase of the cell suspension is reduced for PDT treatment, from ambient to 0.0%. The oxygen enhancement ratio (O.E.R.) Is 4.0 at the D0.

EMT6/Ed cells [8] = test: Cellular uptake by 14C-labeling and confocal laser scanning microscopy; settings: CLSM
[9] = Light absorption properties (red spectral region, 630 nm); format: physicochemical; settings: for A630: absorbance at 630 nm
EMT6/Ed cells [10] = test system: EMT6/Ed cells

Molecule	LD50 Dark (cells) [µM]	Photopotentiation Factor (cells)	LD50 Light (cells) [µM]	^1O2 Yield [1]	rate of ultrasound-induced cell damage (sarcoma 180 cells [2])	Abs. Peak in red Spectral region [9]	Extinction Coefficient (× 10^−3) (630 nm) [9]	A630 [9]	other results
5,8-dibromo-HB [DBHB]	10	3.3	3	0.62					maximum sonotoxic effect (HL-60 cells): comparable to that of the Hp control; sonotoxicity (HL-60 cells): negligible sonotoxicity
CCCCCCCCCCOC(C)C1=C(C)c2cc3[n-]c(cc4[n-]c(cc5nc(cc1n2)C(C)=C5C(C)OCCCCCCCCCC)c(C)c4CCC(=O)NC(CC(=O)[O-])C(=O)[O-])c(CCC(=O)NC(CC(=O)[O-])C(=O)[O-])c3C.[Ga+3].[H+].[H+].[H+] (stereo not drawn) [ATX-70, 2,4-bis(1-decyloxyethyl)-Ga(lll)-1,3,5,8-tetramethylporphryin-6,7-dipropionyl diaspartic acid]					in excess of four times				levels of nitroxide relative to solutions containing Hp [3]: 2.5 times; ultrasound induced bleaching relative to Hp [4]: three times as great
COc1cccc2c1C(=O)c1c(O)c3c(c(O)c1C2=O)CC(O)(C(=O)COC(=O)CCCCCC(=O)O)CC3OC1OC(C)C(O)C(O)C1F (stereo not drawn) [FAD 104, 3′-deamino-2′-fluoro-3′-hydroxydoxorubicin-14-pimelate]					doubled				cell damage with compound alone (sarcoma 180 cells [2]; no ultrasound): no cell damage
C=Cc1c(C)c2cc3nc(c4c5[nH]c(cc6nc(cc1[nH]2)C(C)=C6CC)c(C)c5C(=O)[C@@H]4C(=O)OC)[C@@H](CCC(=O)O)[C@@H]3C [Ph-A, Pheophorbide A]					double				tumor growth (sarcoma 180 cells [5]): completely inhibited tumor growth
CCOC(=O)NC1=C(N2CC2)C(=O)C(NC(=O)OCC)=C(N2CC2)C1=O [diaziquone]									effect in combination with ultrasound on cytotoxicity (cell lines): synergistic effects; antitumour effect measured by volume reduction [6]: significant antitumour effect
COc1cccc2c1C(=O)c1c(O)c3c(c(O)c1C2=O)C[C@@](O)(C(=O)CO)C[C@@H]3O[C@H]1C[C@H](N)[C@H](O)[C@H](C)O1 [doxorubicin]									antitumour effect measured by volume reduction [6]: significant antitumour effect
Ethanolamine-HB [HBEA-R1]		100-167	0.15	0.60					cell killing with light (cells): capable of killing cells; LD50 Dark (cells; without light): 15 to 25 µM; cure rate (EMT6/Ed tumors; 50 Joules of 630 nm light): 40%; tumor cure (EMT6/Ed tumors; 100 Joules of 630 nm light): approximately 90%; cure rates (EMT6/Ed tumors; lower light dosages): significantly lower; apoptotic morphology (EMT6/Ed cells [7]; PDT, within 48 hours of treatment): 50%; induction of apoptosis by sensitizer alone (EMT6/Ed cells [7]; photosensitizing concentrations, no light): do not induce apoptosis; phototoxicity without oxygen (cell suspension): Evidence of type 1—mediated phototoxicity; time until uptake is complete (EMT6/Ed cells [8]): ≤ 2 h
Hypocrellin B [HB, reference compound]		10-13	1.5 to 2	0.74		658* nm	1.00 × 10^−3	0.100	LD50 Dark (cells; without light): 20 µM; Amax/solvent ([9]; solvent DMF): 0.118/DMF; cytotoxicity under uptake conditions (EMT6/Ed cells [10]): not cytotoxic; time until cellular uptake reached equilibrium (EMT6/Ed cells [10]): ≤ 15 min
demethylated HB [DMHB]	>25	>5-8.3	3 to 5	0.42		648* nm	4.77 × 10^−3	0.477	Amax/solvent ([9]; solvent EtOH): 0.469/EtOH; maximum sonotoxic effect (HL-60 cells): comparable to that of the Hp control; sonotoxicity (HL-60 cells): negligible sonotoxicity
n-butylaminated HB [HBBA-R2]	>100	167-500	0.2 to 0.6	0.32		616* nm	6.19 × 10^−3	0.619	cell killing with light (cells): capable of killing cells; Amax/solvent ([9]; solvent CHCl3): 0.628/CHCl3
